“Also recorded” adds a separate entry of the source.
Columns and labels:
[1] = Systemic toxicity in treated mice (body weight, organs); assay type: in vivo, C57BL/6 mice
Excerpt: Four- to six-week-old female and male C57BL/6 mice were used in mice experiment. Mice were randomized into different groups. In metastasis experiment, B16-F1 cell spheroids were selected from 3D 90-Pa fibrin gels and pipetted to single cells. These TRCs were harvested and the cell number was counted under microscopy. The cells were then suspended in PBS with appropriate cell density. Thirty thousand TRCs were intravenously injected into the tail vein of each wild-type C57BL/6 mouse. Five days later, inoculated mice were intravenous implanted with 0.022 mg kg^−1 WYC-209, 0.22 mg kg^−1 WYC-209, or 0.1% DMSO every two days. The mice were euthanized and examined for lung tumor formation at day 30. In treated TRCs injected in vivo experiments, B16-F1 cells were seeded into 3D 90-Pa fibrin gels and treated with 10 µM WYC-209 or 0.1% DMSO on day 3, then isolated treated TRCs colonies on day 5 and pipetted into single cell. 30,000 of TRCs were intravenously injected into the tail vein of each wild-type C57BL/6 mouse. No blinding was performed in the mice experiments.
Lung, liver, spleen, bone, stomach, and brain of C57BL/6 mice were fixed by 4% paraformaldehyde then were embedded in paraffin and cut to ~4 µm thick sections by Thermo FINESSE 325. Organ sections were stained by H&E and slides were evaluated for tumor formation by a veterinary pathologist blinded to sample identity.

Sox2 = Sox2 expression by qPCR in TRCs; assay type: cell-based, murine
Procedure: Total mRNA was isolated from the cells using the Trizol reagent according to the supplier’s instruction (Invitrogen). Reverse transcription (RT) was performed using the TransScript First-strand cDNA Synthesis SuperMix (TransGen), according to the manufacturer’s protocol. Real-time RT-PCR was performed using GoTaq qPCR Master Mix (Promega). The data were normalized against mouse glyceraldehyde 3-phosphate dehydrogenase. The primer sequences are as follows: mouse GAPDH (F: 5′-[…]-3′, R: 5′-[…]-3′); mouse RARα (F: 5′-[…]-3′, R: 5′-[…]-3′); mouse RARβ (F: 5′-[…]-3′, R: 5′-[…]-3′); mouse RARγ (F: 5′-[…]-3′, R:5′-[…]-3′); mouse Sox2 (F: 5′-[…]-3′, R: 5′-[…]-3′); mouse Mitf (F: 5′-[…]-3′, R: 5′-[…]-3′).
Supplementary Figure 39. WYC-209 decreases Sox2 expression but has no effects on Mitf expression. Murine melanoma cells B16-F1 were seeded into 3D soft fibrin gels and then were treated with 0.1% DMSO, 0.1, 1 or 10 µM WYC-209, WYC-209A, or WYC-209B on day 4. mRNA of cells were extracted after 24 hours. Sox2 (a) and Mitf (b) expressions […]
(§1) (1 picture or pasted object on this page, not shown here)

[2] = test system: unselected B16-F1 melanoma cells; experiment: Proliferation of unselected B16-F1 cells on 2D rigid dishes; assay type: cell-based, murine; settings: 10 μM, 48 hours
Procedure: Supplementary Figure 9. WYC-209 detaches adherent melanoma cells on rigid plastic. Murine melanoma cell line B16-F1 were cultured on rigid plastics and treated with 10 μM WYC-209 and observed for 48 hours. Cell nucleus were stained with DAPI. DMSO: medium containing 0.1% DMSO. (a) Representative images of cells stained with DAPI 48 hrs after treatment. Scale bars, 500 μm. (b) Quantitation of cell numbers per view field of B16-F1 treated with WYC-209. Mean ± s.e.m.; n=5 samples; 3 independent experiments; *** P<0.001 (Student’s t-test).
as §1

[3] = test system: human melanoma MDA-MB-435s; experiment: Colony growth of MDA-MB-435s TRCs in 90-Pa fibrin gels; assay type: cell-based
Procedure: Salmon fibrinogen and thrombin were purchased from Reagent Proteins (CA, USA). 3D fibrin gels were prepared as described previously[5],[6]. In brief, fibrinogen was diluted into 2 mg mL^−1 with T7 buffer (pH 7.4, 50 mM Tris, 150 mM NaCl). Cells were detached from 2D rigid dishes and cell density was adjusted to 10^4 cells per mL. Fibrinogen and cell solution mixture were made by mixing the same volume of fibrinogen solution and cell solution, resulting in 1 mg mL^−1 fibrinogen and 5000 cells per mL in the mixture fibrin gels. A volume of 50 μL cell/fibrinogen mixture was seeded into each well of 96-well plate and mixed well with pre-added 1 μL thrombin (100 U mL^−1). The cell culture plate was then incubated in 37 °C cell culture incubator for 10 min. Finally, 200 μL of DMEM medium containing 10% FBS and antibiotics was added.

[4] = test system: B16-F1 melanoma cells / TRCs; experiment: Apoptosis by Annexin-V and PI flow cytometry; assay type: cell-based, murine; settings: 10 μM, 24 h after treatment
Procedure: For Annexin-V and PI staining to quantify cell apoptosis, treated TRCs were isolated from 3D fibrin gel by using 5 mg mL^−1 Dispase II (Sigma), cells were labeled with FITC-conjugated Annexin-V and PI according to the manufacturer’s instruction (Biolegend). Data were acquired on a BD Cantoll (BD biosciences) and analyzed with FlowJo software. For BrdU staining to quantify cell proliferation, cells were labeled with FITC-conjugated anti-BrdU antibody according to the manufacturer’s instruction (FITC BrdU Flow Kit, BD Biosciences) and then data were acquired on an Accuri C6 (BD Biosciences) and analyzed with BD Accuri C6 software.
Supplementary Figure 12. WYC-209 induces TRC apoptosis at 10 µM. (a)
Murine melanoma B16-F1 cells were seeded into 3D soft fibrin gels and then treated […]
The cells were collected after 24 hours and stained with FITC-conjugated Annexin-V and PI for apoptotic detection by flow cytometry. Apoptotic cells (%) = 100% - (Annexin-V-PI-) %. Mean ± s.e.m.; 3 separate experiments; *** P<0.001 (Student’s t-test). (b) Original images of flow cytometry of (a).
as §1
Supplementary Figure 38. WYC-209 induces tumor cell apoptosis. […]

SMILES: CCOC(=O)c1cnc(C#Cc2ccc3c(c2)C(C)(C)CC[S+]3[O-])nc1 (centres unmarked) [WYC-209]
- Mouse body weight versus control group ([1]; 0.022 or 0.22 mg kg−1): no effects on mouse weight
- Toxic effects in mice / on organs ([1]; 0.022 or 0.22 mg kg−1 i.v. every two days): No abnormalities in mouse organs; also recorded: no toxic effects on mouse livers; also recorded: no toxic effects on mouse stomach; also recorded: no observable toxic or necrotic effects or weight loss; also recorded: without showing apparent toxicity
- Decrease of Sox2 expression (Sox2; 10 μM, 24 h): ~ 50%
- Change in Sox2 expression (Sox2; 0.1 or 1 µM): no change
- Proliferation of unselected B16-F1 cells on 2D rigid dishes [2]: completely inhibited
- IC50 ([3]; 0 h, treated on day 0): 520 nM
- inhibition at 10 µM ([3]; 10 μM): 100%
- Apoptosis of un-selected melanoma cells or melanoma TRCs [4]: ~ 95%
